This note sets out measurements from ChEMBL document CHEMBL1146945, “Quaternary salts of 4,3' and 4,4' bis-pyridinium monooximes. Part 2: synthesis and biological activity” (Bioorg Med Chem Lett, 2006).

The source made the active and inactive calls. No cut-off for these calls is given here.

The first test addresses T1, Acetylcholinesterase (Mus musculus) (UniProt P21836).
T1 sequence (whole entry): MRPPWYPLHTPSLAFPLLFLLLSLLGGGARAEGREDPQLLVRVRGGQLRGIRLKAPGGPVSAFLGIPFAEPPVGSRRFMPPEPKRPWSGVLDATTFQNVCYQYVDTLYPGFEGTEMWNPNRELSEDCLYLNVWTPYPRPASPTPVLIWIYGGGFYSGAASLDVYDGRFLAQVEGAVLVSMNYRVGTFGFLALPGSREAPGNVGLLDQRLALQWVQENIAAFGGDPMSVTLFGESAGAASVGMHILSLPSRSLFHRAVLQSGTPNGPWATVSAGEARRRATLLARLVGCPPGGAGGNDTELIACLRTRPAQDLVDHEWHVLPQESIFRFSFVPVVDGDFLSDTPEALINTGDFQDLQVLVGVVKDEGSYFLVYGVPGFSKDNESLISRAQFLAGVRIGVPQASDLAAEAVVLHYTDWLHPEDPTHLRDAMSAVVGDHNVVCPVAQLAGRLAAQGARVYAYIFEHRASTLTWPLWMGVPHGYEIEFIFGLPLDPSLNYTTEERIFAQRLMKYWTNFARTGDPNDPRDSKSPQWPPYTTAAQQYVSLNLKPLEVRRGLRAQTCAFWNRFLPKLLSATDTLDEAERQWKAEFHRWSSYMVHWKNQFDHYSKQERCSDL
The experiment in a line: Reactivation of TEPP inhibited mouse brain AChE at 30 uM. The format is functional. On the set-up: scale not given: the % may be the effect or the level left.
Compound `O/N=C/c1cc[n+](CCCCCCC[n+]2ccc(/C=N/O)cc2)cc1` had an Activity of 39%.

On to `NC(=O)c1ccc[n+](CCCCCCC[n+]2ccc(/C=N/O)cc2)c1`, for which the Activity came to 23%.

Compound `NC(=O)c1cc[n+](CCCCCCC[n+]2ccc(/C=N/O)cc2)cc1` registered an Activity of 15%.

For another test, the target named is T1, Acetylcholinesterase (Mus musculus). The experiment in a line: Potentiation of inhibition of AChE by TEPP in mouse brain at 100 uM. It is filed as functional, tissue-based.
With `NC(=O)c1ccc[n+](CCCCCCC[n+]2ccc(/C=N/O)cc2)c1`, the result was Active.

`NC(=O)c1cc[n+](CCCCCCC[n+]2ccc(/C=N/O)cc2)cc1`: the outcome was Active.

The target is the same in a further test. The experiment in a line: Potentiation of inhibition of AChE by TEPP in mouse brain at 300 uM. It is filed as functional, tissue-based.
For the compound `O/N=C/c1cc[n+](CCCCCCC[n+]2ccc(/C=N/O)cc2)cc1`, the result was Active.

`NC(=O)c1ccc[n+](CCCCCCC[n+]2ccc(/C=N/O)cc2)c1`: the result was Active.

In the case of `NC(=O)c1cc[n+](CCCCCCC[n+]2ccc(/C=N/O)cc2)cc1`, the result was Active.

The target is the same in another test. Description: Reactivation of TEPP inhibited AChE in mouse brain at 100 uM. The format is functional, tissue-based. On the set-up: scale not given: the % may be the effect or the level left.
Consider `NC(=O)c1cc[n+](CCCCCCCC[n+]2ccc(/C=N/O)cc2)cc1`, for which the outcome was inactive.

As to `NC(=O)c1ccc[n+](CCCCCCCC[n+]2ccc(/C=N/O)cc2)c1`, the result was inactive.

With `O/N=C/c1cc[n+](CCCCCCCCC[n+]2ccc(/C=N/O)cc2)cc1`, the outcome was inactive.

In turn, `O/N=C/c1cc[n+](CCCCCCC[n+]2ccc(/C=N/O)cc2)cc1` registered an Activity of 14%.

For the compound `O/N=C/c1cc[n+](CCCCCCCC[n+]2ccc(/C=N/O)cc2)cc1`, the result was inactive.

In the case of `NC(=O)c1ccc[n+](CCCCCCCCC[n+]2ccc(/C=N/O)cc2)c1`, the outcome was inactive.

With `NC(=O)c1cc[n+](CCCCCCCCC[n+]2ccc(/C=N/O)cc2)cc1`, the outcome was inactive.

For a further test the target is unchanged. The experiment in a line: Reactivation of TEPP inhibited AChE in mouse brain at 50 uM. The format is functional, tissue-based.
Take `NC(=O)c1cc[n+](CCCCCCCC[n+]2ccc(/C=N/O)cc2)cc1`: the outcome was inactive.

`NC(=O)c1ccc[n+](CCCCCCCC[n+]2ccc(/C=N/O)cc2)c1`: the outcome was inactive.

Regarding `O/N=C/c1cc[n+](CCCCCCCCC[n+]2ccc(/C=N/O)cc2)cc1`, the outcome was inactive.

As for `O/N=C/c1cc[n+](CCCCCCCC[n+]2ccc(/C=N/O)cc2)cc1`, the outcome was inactive.

Turning to `NC(=O)c1ccc[n+](CCCCCCCCC[n+]2ccc(/C=N/O)cc2)c1`, the result was inactive.

As for `NC(=O)c1cc[n+](CCCCCCCCC[n+]2ccc(/C=N/O)cc2)cc1`, the outcome was inactive.

The next test has the same target. Description: Reactivation of TEPP inhibited AChE in mouse brain at 250 uM. The format is functional, tissue-based.
For the compound `NC(=O)c1cc[n+](CCCCCCCC[n+]2ccc(/C=N/O)cc2)cc1`, the outcome was inactive.

In the case of `NC(=O)c1ccc[n+](CCCCCCCC[n+]2ccc(/C=N/O)cc2)c1`, the result was inactive.

On to `O/N=C/c1cc[n+](CCCCCCCCC[n+]2ccc(/C=N/O)cc2)cc1`, for which the outcome was inactive.

For the compound `O/N=C/c1cc[n+](CCCCCCCC[n+]2ccc(/C=N/O)cc2)cc1`, the outcome was inactive.

As to `NC(=O)c1ccc[n+](CCCCCCCCC[n+]2ccc(/C=N/O)cc2)c1`, the outcome was inactive.

In the case of `NC(=O)c1cc[n+](CCCCCCCCC[n+]2ccc(/C=N/O)cc2)cc1`, the outcome was inactive.

A further test shares this target. The experiment in a line: Reactivation of TEPP inhibited AChE in mouse brain at 300 uM. It is filed as functional, tissue-based.
In the case of `NC(=O)c1cc[n+](CCCCCCCC[n+]2ccc(/C=N/O)cc2)cc1`, the outcome was inactive.

Regarding `NC(=O)c1ccc[n+](CCCCCCCC[n+]2ccc(/C=N/O)cc2)c1`, the outcome was inactive.

As for `O/N=C/c1cc[n+](CCCCCCCCC[n+]2ccc(/C=N/O)cc2)cc1`, the result was inactive.

Turning to `O/N=C/c1cc[n+](CCCCCCCC[n+]2ccc(/C=N/O)cc2)cc1`, the outcome was inactive.

Regarding `NC(=O)c1ccc[n+](CCCCCCCCC[n+]2ccc(/C=N/O)cc2)c1`, the outcome was inactive.

Regarding `NC(=O)c1cc[n+](CCCCCCCCC[n+]2ccc(/C=N/O)cc2)cc1`, the outcome was inactive.

The target is the same in a further test. The experiment in a line: Reactivation of TEPP inhibited AChE in mouse brain at 150 uM. The format is functional, tissue-based.
On to `NC(=O)c1cc[n+](CCCCCCCC[n+]2ccc(/C=N/O)cc2)cc1`, for which the result was inactive.

Turning to `NC(=O)c1ccc[n+](CCCCCCCC[n+]2ccc(/C=N/O)cc2)c1`, the outcome was inactive.

Turning to `O/N=C/c1cc[n+](CCCCCCCCC[n+]2ccc(/C=N/O)cc2)cc1`, the result was inactive.

Regarding `O/N=C/c1cc[n+](CCCCCCCC[n+]2ccc(/C=N/O)cc2)cc1`, the outcome was inactive.

Take `NC(=O)c1ccc[n+](CCCCCCCCC[n+]2ccc(/C=N/O)cc2)c1`: the outcome was inactive.

Turning to `NC(=O)c1cc[n+](CCCCCCCCC[n+]2ccc(/C=N/O)cc2)cc1`, the result was inactive.

The target is the same in the next test. The experiment in a line: Reactivation of TEPP inhibited AChE in mouse brain at 200 uM. The format is functional, tissue-based.
Regarding `NC(=O)c1cc[n+](CCCCCCCC[n+]2ccc(/C=N/O)cc2)cc1`, the result was inactive.

As to `NC(=O)c1ccc[n+](CCCCCCCC[n+]2ccc(/C=N/O)cc2)c1`, the outcome was inactive.

Take `O/N=C/c1cc[n+](CCCCCCCCC[n+]2ccc(/C=N/O)cc2)cc1`: the outcome was inactive.

As for `O/N=C/c1cc[n+](CCCCCCCC[n+]2ccc(/C=N/O)cc2)cc1`, the outcome was inactive.

With `NC(=O)c1ccc[n+](CCCCCCCCC[n+]2ccc(/C=N/O)cc2)c1`, the outcome was inactive.

In the case of `NC(=O)c1cc[n+](CCCCCCCCC[n+]2ccc(/C=N/O)cc2)cc1`, the outcome was inactive.
